# System: trypsin-like proteasome activity in three-dimensional human skin model
# Test: Proteasome activity in three-dimensional human skin model
# Assay type: cell-based
# Conditions: for proteasome activity compared to the sample not given any treatment: without UV irradiation
# Protocol: Three-dimensional human skin models are widely used in safety evaluation and effectiveness evaluation as a simulated model of human skin. In this test, TESTSKIN (LSE-high) (Toyobo Co., Ltd.) was used as a three-dimensional human skin model.
# A culture medium was added to the outer well of TESTSKIN (LSE-high) and cultured for 24 hours. UVA and UVB were irradiated at 10 J/cm^2 and 100 mJ/cm^2, respectively. UVB was irradiated for 2 minutes at a UV intensity of […] using FL20S-E-30/DMR (Clinical Supply Co., Ltd.) to achieve a total irradiation dose of 100 mJ/cm^2. UV intensity was measured using a UV MONITOR MS-211-I (Eiko Instruments Co., Ltd.).
# Thereafter, the culture solution was changed and each agent was added by 100 μl onto the tissues in the assay ring, after which the medium was cultured for 36 hours. Thereafter, the tissues were collected and a tissue extraction solution (50 mM Tris-HCl (pH 7.5), 0.5% (Octylphenoxy) polyethoxyethanol (Sigma-Aldrich Corp.)) was added, and then the mixture was homogenized using a Teflon (registered trademark) homogenizer. The homogenized mixture was centrifuged for 30 minutes at 10,000×G to remove tissue fragments, and then dialyzed overnight in distilled water at 4° C. Thereafter, the dialyzed mixture was freeze-dried to remove water. A tissue extraction solution was added to obtain a ×20 concentrate, and this concentrate was used as a three-dimensional skin model extract sample.
# Proteasome activity was measured using a known method (Hayashi, et al., Mechanisms of Aging and Development, Vol. 102, pp. 55-66, 1998) based on cell extract samples.
# The specific method is as follows. For the matrix to measure trypsin-like proteasome activity, t-butyloxycarbonyl-L-leucyl-L-arginyl-L-arginyl-L-4-methyl-coumaryl-7-amide (Peptide Institute, Inc.) was used. A cell extract sample containing protein by an equivalent of 10 μg was added to 10.5 μl of a 100 μM matrix solution prepared with 100 mM Tris-HCl (pH 8.0), after which a cell extraction solution was added to a total volume of 50 μl. The obtained solution was treated for 30 minutes at 37° C., after which the fluorescence intensity of the separated 7-amine-4-methyl coumarin was measured at an excitation wavelength (Ex) of 380 nm and absorption waveform (Em) of 440 nm. The result was obtained for each sample type treated with each agent, as an “average ±standard error” calculated from the measured values of three samples.
# Based on the above results, it is clear that Bletilla striata extract and silybin promote proteasome activity in a three-dimensional skin model in a manner dependent on the concentration. Accordingly, whether or not a combined use of Bletilla striata extract and silybin would synergistically promote proteasome activity was evaluated. Also, whether or not a combined use of silybin and soybean saponin, a substance known to have an action to promote proteasome activity, would synergistically promote proteasome activity was evaluated. As a result, regardless of whether or not UV light was irradiated, using silybin (3 μM) in combination with Bletilla striata extract (0.1%; final extract concentration of 0.001%), or using silybin (3 μM) in combination with soybean saponin (0.0005%), promoted proteasome activity synergistically compared to when a sample was treated with silybin (3 μM), Bletilla striata extract (0.1%; final extract concentration of 0.001%) or soybean saponin (0.0005%) alone, as far as promotion of proteasome activity in a three-dimensional skin model was concerned (FIG. 12).
# [1] = FIG. 11, 3 μM, under UV irradiation
# [2] = FIG. 11, 10 μM, under UV irradiation
# [3] = FIG. 12, under UV irradiation, silybin 3 μM, Bletilla striata extract 0.1%, soybean saponin 0.0005%, alone or combined
compound,measurement,setting,value
"COc1cc(C2Oc3cc([C@H]4Oc5cc(O)cc(O)c5C(=O)[C@@H]4O)ccc3OC2CO)ccc1O (stereo partly drawn) [Silybin, silybin]",proteasome activity compared to the sample not given any treatment under UV irradiation (75%),[1],140%
same,relative proteasome activity level,[1],105%
same,proteasome activity compared to the sample not given any treatment,"FIG. 11, 3 μM",145%
same,proteasome activity compared to the sample not given any treatment under UV irradiation (75%),[2],170%
same,relative proteasome activity level,[2],128%
same,proteasome activity compared to the sample not given any treatment,"FIG. 11, 10 μM",178%
same,proteasome activity compared to the sample not given any treatment under UV irradiation (73%),[3],121%
same,relative proteasome activity level,[3],88%
same,proteasome activity compared to the sample not given any treatment,"FIG. 12, silybin 3 μM, Bletilla striata extract 0.1%, soybean saponin 0.0005%, alone or combined",125%

# Reference: patent US20110003760A1, “ABNORMAL PROTEIN REMOVING METHOD” (priority 2005, published 2011)
